PubChem BioAssay (NCI)
Values joined by “and” are separate entries in the source; they are usually repeats but may differ in a detail not shown here. Equal values may be shown once.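 96-well plates; 48 h exposure; 5 concentrations. Endpoints by linear interpolation between flanking doses. Not reached: highest tested concentration assigned. The concentration for 50% growth inhibition is given as GI50. At the TGI there is no net growth.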

Key:
Assay in all cases: NCI-60 cell line screen, 48 h
DU-145 prostate = test system: DU-145 prostate
LOX IMVI melanoma = test system: LOX IMVI melanoma
HCT-116 colon = test system: HCT-116 colon
MDA-MB-435 = test system: MDA-MB-435
RPMI-8226 leukemia = test system: RPMI-8226 leukemia
U251 CNS = test system: U251 CNS
EKVX NSCLC = test system: EKVX NSCLC
HCT-15 colon = test system: HCT-15 colon
CAKI-1 renal = test system: CAKI-1 renal
TK-10 renal = test system: TK-10 renal

SMILES | GI50 (DU-145 prostate) | TGI (DU-145 prostate) | GI50 (LOX IMVI melanoma) | TGI (LOX IMVI melanoma) | GI50 (HCT-116 colon) | TGI (HCT-116 colon) | GI50 (MDA-MB-435) [µM] | TGI (MDA-MB-435) [µM] | GI50 (RPMI-8226 leukemia) | TGI (RPMI-8226 leukemia) | GI50 (U251 CNS) | TGI (U251 CNS) | GI50 (EKVX NSCLC) | TGI (EKVX NSCLC) [µM] | GI50 (HCT-15 colon) | TGI (HCT-15 colon) [µM] | GI50 (CAKI-1 renal) [µM] | TGI (CAKI-1 renal) [µM] | GI50 (TK-10 renal) | TGI (TK-10 renal)
COc1ncc(-c2ccc3nccc(C#CCCCCC(=O)NO)c3c2)cc1NS(=O)(=O)c1ccc(F)cc1F | 0.134 µM | 12.6 µM | 0.0968 µM | 1.9 µM | 0.123 µM | 2.8 µM | 0.132 | 4.83 | 1.02 µM | 4.79 µM | 0.128 µM | 2.67 µM | 0.0569 µM | 4.09 | 0.15 µM | 13 | 0.875 | 11.8 | 0.0294 µM | 1.37 µM
COC(=O)[C@]12CC[C@@H](C)[C@H](C)[C@@H]1C1=CC[C@@H]3[C@@](C)(CC#N)C4=C(C[C@@]3(C)[C@]1(C)CC2)OC[C@]4(C)C=O | 4.78 µM | > 100 µM | 3.11 µM | 13.3 µM | 2.78 µM | 10.7 µM | 4.39 | 44.1 | 3.05 µM | 13.6 µM | 3.61 µM | 19.2 µM | 4.32 µM | 48.7 | 3.1 µM | 23.2 | 6.32 | > 100 | 8.07 µM | > 100 µM
Cc1cnc(-c2ccc(-c3ccc(NC(=O)Nc4c(F)cc(F)cc4F)cc3F)c3c2C(=O)NC3)[nH]1 | 1.1 µM and 1.42 µM | 4.64 µM and 7.36 µM | 0.0973 µM and 0.386 µM | 4.22 µM and 14.5 µM | 0.307 µM and 1.03 µM | 2.8 µM and 2.71 µM | 0.483 | 4.29 | 1.02 µM and 0.715 µM | 6.02 µM and > 33 µM | 0.433 µM and 0.926 µM | 1.85 µM and 2.51 µM | 2.33 µM and 2.96 µM | > 100 | 1.82 µM and 0.948 µM | > 100 | 1.74 | 27.5 | 2.06 µM and 5.43 µM | 7.67 µM and 17.6 µM
Nc1cc(N)c2nc(NCCc3ccc(Cl)c(Cl)c3)cnc2c1 | 17.2 µM | 31 µM | 12 µM | 31.1 µM | 3.7 µM | 15.1 µM | 3.96 | 13.6 | 2.54 µM | 7.81 µM | 11.7 µM | 23.9 µM | 12.1 µM | 24.6 | 13.5 µM | 27.3 | 4.89 | 18.2 | 18.5 µM | 33.3 µM
COc1ccc(/C=C\c2cc(OC)c(OC)c(OC)c2)c(NS(=O)(=O)c2ccc(F)cc2)c1O | 0.039 µM | – | 0.142 µM | 36.8 µM | 0.0428 µM | > 100 µM | 0.0204 | 0.0515 | 0.0448 µM | 18.9 µM | 0.142 µM | > 100 µM | 0.466 µM | > 100 | 0.0752 µM | > 100 | 0.115 | > 100 | 2.25 µM | > 100 µM
COC(=O)Nc1nc2ccc(C(=O)c3ccc(F)cc3)cc2[nH]1 | 0.298 µM | 0.858 µM | 0.762 µM | > 100 µM | 0.146 µM | > 100 µM | 0.0335 | 0.155 | 0.434 µM | – | 0.287 µM | 6.68 µM | 0.438 µM | > 100 | 0.0909 µM | > 100 | 2.34 | > 36.4 | 1.72 µM | 58.3 µM
Cc1[nH]nc(C(=O)N/N=C/c2ccccc2Cl)c1N=NN(C)C | – | > 23.4 µM | – | > 100 µM | – | > 100 µM | – | > 100 | – | > 100 µM | – | > 100 µM | – | > 100 | – | > 100 | – | > 100 | – | > 100 µM
Cc1c(Cl)c(C)c(Cl)c(O)c1Cl | – | > 100 µM | – | > 100 µM | – | 39.6 µM | – | 60.7 | – | 68.3 µM | – | 37.7 µM | – | 82.1 | – | 75.6 | – | 62.7 | – | 82.3 µM
Cc1cc(C)c2c(c1)N(C)c1ncnc(-n3cnc4cc(C)ccc43)c1CC2C (stereo not drawn) | 4.44 µM | 63.7 µM | 4.82 µM | 33.4 µM | 3.08 µM | 14.6 µM | 2.44 | 10.6 | 2.59 µM | 9.08 µM | 3.55 µM | 19.4 µM | 4.76 µM | > 100 | 3.58 µM | 36.3 | 3.37 | 70.2 | 7.37 µM | > 100 µM
C=CC(=O)N1CCC[C@@H](n2nc(-c3ccc(Oc4ccccc4)cc3)c3c(N)ncnc32)C1 | 3.03 µM | > 10 µM | > 5.39 µM | > 10 µM | > 10 µM | > 10 µM | > 10 | > 10 | > 7.41 µM | > 10 µM | 9.81 µM | > 10 µM | 0.396 µM | > 10 | > 10 µM | > 10 | > 6.12 | > 10 | 0.0409 µM | 3.14 µM
CC(C)C1=CC2=C(C(=O)C1=O)C13CCCC(C)(C)C1CC2OC3=O (stereo not drawn) | – | 44.9 µM | – | 39.7 µM | – | 33.2 µM | – | 43.2 | – | 39.7 µM | – | 49.7 µM | – | 31.7 | – | 30.7 | – | 44.1 | – | 28.6 µM
O=C(O)c1ccc(/C=N/N=C2c3ccccc3-c3ccccc32)cc1 | – | > 100 µM | – | > 100 µM | – | > 100 µM | – | > 100 | – | > 100 µM | – | > 100 µM | – | > 100 | – | > 100 | – | 93.3 | – | > 100 µM
